From patent publication US5391540A, “Substituted pyridine compounds” (Rohm and Haas Company, priority 1993, dated 1995)

Assays:
Assay in all cases: Pre-emergent herbicidal activity (Table A)
Format in all cases: in vivo
[1] = tested on: Velvetleaf; details: Abutilon theophrasti, pre-emergence, Vele, 11.2 kg/ha, 10-14 days, read-out: herbicidal rating (% inhibition)
Procedure: (§1) The herbicidal ratings used in Tables A and B were assigned according to a scale based on the percent inhibition of each plant species. The herbicide rating symbols in Tables A and B are defined as follows: […]
(§2) One set of pre-emergent tests was conducted as follows:
(§3) Topsoil was placed in a pan and compacted to a depth of 0.95 to 1.27 cm. from the top of the pan. A predetermined number of seeds of each of several monocotyledonous and dicotyledonous annual plant species and/or vegetative propagules of various perennial plant species were placed on top of the soil. The soil required to level fill a pan after seeding or adding vegetative propagules was weighed into another pan. A known amount of the test compound dissolved or suspended in an organic solvent or water and applied in acetone or water as a carrier was thoroughly mixed with this cover soil, and the herbicide/soil mixture was used as a cover layer for the previously prepared pan.
(§4) The plant species usually regarded as weeds which were utilized in one set of pre-emergent activity tests, the data for which are shown in Table A, are identified by letter headings printed diagonally above the columns according to the following legend: […]

[2] = tested on: Morningglory; details: Ipomoea, pre-emergence, Mogl, 11.2 kg/ha, 10-14 days, read-out: herbicidal rating (% inhibition)
Procedure: as §1, §2, §3, §4

[3] = tested on: Barnyardgrass; details: Echinochloa crus-galli, pre-emergence, Bygr, 11.2 kg/ha, 10-14 days, read-out: herbicidal rating (% inhibition)
Procedure: as §1, §2, §3, §4

[4] = tested on: Canada thistle; details: Cirsium arvense, pre-emergence, Cath, 11.2 kg/ha, 10-14 days, read-out: herbicidal rating (% inhibition)
Procedure: as §1, §2, §3, §4

[5] = tested on: Cocklebur; details: Xanthium strumarium, pre-emergence, Cobu, 11.2 kg/ha, 10-14 days, read-out: herbicidal rating (% inhibition)
Procedure: as §1, §2, §3, §4

[6] = tested on: Downy Brome; details: Bromus tectorum, pre-emergence, Dobr, 11.2 kg/ha, 10-14 days, read-out: herbicidal rating (% inhibition)
Procedure: as §1, §2, §3, §4

[7] = tested on: Yellow Nutsedge; details: Cyperus, pre-emergence, Yens, 11.2 kg/ha, 10-14 days, read-out: herbicidal rating (% inhibition)
Procedure: as §1, §2, §3, §4

[8] = tested on: Quackgrass; details: pre-emergence, Rhqg, 11.2 kg/ha, 10-14 days, read-out: herbicidal rating (% inhibition)
Procedure: as §1, §2, §3, §4

[9] = tested on: Common Lambsquarters; details: Chenopodium album, pre-emergence, Colq, 11.2 kg/ha, 10-14 days, read-out: herbicidal rating (% inhibition)
Procedure: as §1, §2, §3, §4

[10] = tested on: Pennsylvania Smartweed; details: pre-emergence, Pesw, 11.2 kg/ha, 10-14 days, read-out: herbicidal rating (% inhibition)
Procedure: as §1, §2, §3, §4

[11] = tested on: Rhizome Johnsongrass; details: Sorghum halepense, pre-emergence, Rhjg, 11.2 kg/ha, 10-14 days, read-out: herbicidal rating (% inhibition)
Procedure: as §1, §2, §3, §4

SMILES | inhibition at 11200 g/ha [1] [%] | inhibition at 11200 g/ha [2] [%] | inhibition at 11200 g/ha [3] [%] | inhibition at 11200 g/ha [4] [%] | inhibition at 11200 g/ha [5] [%] | inhibition at 11200 g/ha [6] [%] | inhibition at 11200 g/ha [7] [%] | inhibition at 11200 g/ha [8] [%] | inhibition at 11200 g/ha [9] [%] | inhibition at 11200 g/ha [10] [%] | inhibition at 11200 g/ha [11] [%]
COC(=O)c1c(C(F)(F)F)[nH]c(=O)c(C#N)c1CC(C)C [Compound 22, 3-pyridinecarboxylic acid, 5-cyano-1,6-dihydro-4-(2-methylpropyl)-6-oxo-2-(trifluoromethyl)-, methyl ester] | 0 to 24 | 0 to 24 | 0 to 24 | 0 to 24 | 0 to 24 | 0 to 24 | 0 to 24 | 0 to 24 | 0 to 24 | 0 to 24 | 0 to 24
C=CCOc1nc(C(F)(F)F)c(C(=O)OC)c(CC(C)C)c1C(=O)OCC [Compound 23, 3,5-pyridinecarboxylic acid, 4-(2-methy1-propyl)-2-(2-propenyloxy)-6-(trifluoromethyl)-, 3-ethyl 5-methyl ester, hydrate (1:0.3)] | 25 to 49 | 25 to 49 | 75 to 100 | 0 to 24 | 0 to 24 | 75 to 100 | 0 to 24 | 25 to 49 | 75 to 100 | 75 to 100 | 75 to 100
COC(=O)c1c(C(F)(F)F)nc(OC)c(C(=O)n2cccn2)c1CC(C)C [Compound 24, 3-pyridinecarboxylic acid, 6-methoxy-4-(2-methylpropyl)-5-(1H-pyrazo1-1-ylcarbonyl)-2-(trifluoromethyl)-, methyl ester, hydrate (1:0.3)] | 75 to 100 | 75 to 100 | 75 to 100 | 25 to 49 | 0 to 24 | 75 to 100 | 0 to 24 | 75 to 100 | 75 to 100 | 75 to 100 | 75 to 100
COC(=O)c1c(C(F)(F)F)nc(OC)c(C(=O)NCCO)c1CC(C)C [Compound 25, 3-pyridinecarboxylic acid, 5-[[(2-hydroxyethyl)amino]carbonyl]-6-methoxy-4-(2-methylpropyl)-2-(trifluoromethyl)-, methyl ester, hydrate (1:0.2)] | 0 to 24 | 0 to 24 | 0 to 24 | 0 to 24 | 0 to 24 | 0 to 24 | 0 to 24 | 0 to 24 | 0 to 24 | 0 to 24 | 0 to 24
CCOC(=O)c1c(OC)nc(C(F)F)c(C(=O)OC)c1CC(C)C [Compound 26, 3,5-pyridinedicarboxylic acid, 2-(difluoromethyl)-6-methoxy-4-(2-methylpropyl)-, 5-ethyl 3-methyl ester] | 75 to 100 | 75 to 100 | 75 to 100 | 75 to 100 | 0 to 24 | 75 to 100 | 0 to 24 | 75 to 100 | 75 to 100 | 75 to 100 | 75 to 100
